# What was measured:
# NCI-H2228 [1] = assay: Growth inhibition of human NCI-H2228 cells; assay type: functional, cell-based
# [2] = molecular target: ALK tyrosine kinase receptor (Homo sapiens, UniProt Q9UM73, L1196M); assay: Inhibition of ALK L1196M mutant (unknown origin)
# [3] = molecular target: ALK tyrosine kinase receptor (Homo sapiens, UniProt Q9UM73); assay: Inhibition of wild-type ALK (unknown origin)
# [4] = molecular target: ALK tyrosine kinase receptor (Homo sapiens, UniProt Q9UM73, F1174L); assay: Inhibition of ALK F1174L mutant (unknown origin)
# NCI-H3122 = assay: Growth inhibition of human NCI-H3122 cells; assay type: functional, cell-based
# [5] = Oral bioavailability in SCID Beige nude mouse xenografted with human NCI-H2228 cells harboring EML4-fused ALK variant at 3 to 30 mg/kg administered once daily for 14 days relative to control; assay type: ADME, organism-based; details: in vivo
# [6] = Toxicity in SCID Beige nude mouse xenografted with human NCI-H2228 cells harboring EML4-fused ALK variant assessed as change in body weight at 30 mg/kg, po administered once daily for 14 days and measured twice per week for 14 days during compound dosing; assay type: organism-based; details: in vivo, 336 h
# [7] = Tmax in SCID Beige nude mouse xenografted with human NCI-H2228 cells harboring EML4-fused ALK variant at 3 to 30 mg/kg, po administered once daily for 14 days; assay type: ADME, organism-based; details: in vivo
# NCI-H2228 [8] = assay: Antitumor activity against human NCI-H2228 cells harboring EML4-fused ALK variant xenografted in SCID Beige nude mouse assessed as tumor growth inhibition at 30 mg/kg, po administered once daily for 14 days measured twice per week for 21 days during compound dosing relative to control; assay type: functional; details: read-out: TGI
# [9] = AUC (0 to t) in SCID Beige nude mouse xenografted with human NCI-H2228 cells harboring EML4-fused ALK variant at 3 to 30 mg/kg, po administered once daily for 14 days; assay type: ADME, organism-based; details: in vivo, 336 h
# NCI-H2228 [10] = assay: Antitumor activity against human NCI-H2228 cells harboring EML4-fused ALK variant xenografted in SCID Beige nude mouse assessed as tumor growth inhibition at 10 mg/kg, po administered once daily for 14 days measured twice per week for 21 days during compound dosing relative to control; assay type: functional; details: read-out: TGI
# [11] = Cmax in SCID Beige nude mouse xenografted with human NCI-H2228 cells harboring EML4-fused ALK variant at 3 to 30 mg/kg, po administered once daily for 14 days; assay type: ADME, organism-based; details: in vivo
# NCI-H2228 [12] = assay: Antitumor activity against human NCI-H2228 cells harboring EML4-fused ALK variant xenografted in po dosed SCID Beige nude mouse assessed as tumor growth inhibition administered once daily for 14 days measured twice a week for 21 days during compound dosing; assay type: functional, organism-based; details: tested as the 2H-labelled form
# Chain of ALK tyrosine kinase receptor (Homo sapiens, UniProt Q9UM73, F1174L) (Q9UM73 19-1620 F1174L limits assumed): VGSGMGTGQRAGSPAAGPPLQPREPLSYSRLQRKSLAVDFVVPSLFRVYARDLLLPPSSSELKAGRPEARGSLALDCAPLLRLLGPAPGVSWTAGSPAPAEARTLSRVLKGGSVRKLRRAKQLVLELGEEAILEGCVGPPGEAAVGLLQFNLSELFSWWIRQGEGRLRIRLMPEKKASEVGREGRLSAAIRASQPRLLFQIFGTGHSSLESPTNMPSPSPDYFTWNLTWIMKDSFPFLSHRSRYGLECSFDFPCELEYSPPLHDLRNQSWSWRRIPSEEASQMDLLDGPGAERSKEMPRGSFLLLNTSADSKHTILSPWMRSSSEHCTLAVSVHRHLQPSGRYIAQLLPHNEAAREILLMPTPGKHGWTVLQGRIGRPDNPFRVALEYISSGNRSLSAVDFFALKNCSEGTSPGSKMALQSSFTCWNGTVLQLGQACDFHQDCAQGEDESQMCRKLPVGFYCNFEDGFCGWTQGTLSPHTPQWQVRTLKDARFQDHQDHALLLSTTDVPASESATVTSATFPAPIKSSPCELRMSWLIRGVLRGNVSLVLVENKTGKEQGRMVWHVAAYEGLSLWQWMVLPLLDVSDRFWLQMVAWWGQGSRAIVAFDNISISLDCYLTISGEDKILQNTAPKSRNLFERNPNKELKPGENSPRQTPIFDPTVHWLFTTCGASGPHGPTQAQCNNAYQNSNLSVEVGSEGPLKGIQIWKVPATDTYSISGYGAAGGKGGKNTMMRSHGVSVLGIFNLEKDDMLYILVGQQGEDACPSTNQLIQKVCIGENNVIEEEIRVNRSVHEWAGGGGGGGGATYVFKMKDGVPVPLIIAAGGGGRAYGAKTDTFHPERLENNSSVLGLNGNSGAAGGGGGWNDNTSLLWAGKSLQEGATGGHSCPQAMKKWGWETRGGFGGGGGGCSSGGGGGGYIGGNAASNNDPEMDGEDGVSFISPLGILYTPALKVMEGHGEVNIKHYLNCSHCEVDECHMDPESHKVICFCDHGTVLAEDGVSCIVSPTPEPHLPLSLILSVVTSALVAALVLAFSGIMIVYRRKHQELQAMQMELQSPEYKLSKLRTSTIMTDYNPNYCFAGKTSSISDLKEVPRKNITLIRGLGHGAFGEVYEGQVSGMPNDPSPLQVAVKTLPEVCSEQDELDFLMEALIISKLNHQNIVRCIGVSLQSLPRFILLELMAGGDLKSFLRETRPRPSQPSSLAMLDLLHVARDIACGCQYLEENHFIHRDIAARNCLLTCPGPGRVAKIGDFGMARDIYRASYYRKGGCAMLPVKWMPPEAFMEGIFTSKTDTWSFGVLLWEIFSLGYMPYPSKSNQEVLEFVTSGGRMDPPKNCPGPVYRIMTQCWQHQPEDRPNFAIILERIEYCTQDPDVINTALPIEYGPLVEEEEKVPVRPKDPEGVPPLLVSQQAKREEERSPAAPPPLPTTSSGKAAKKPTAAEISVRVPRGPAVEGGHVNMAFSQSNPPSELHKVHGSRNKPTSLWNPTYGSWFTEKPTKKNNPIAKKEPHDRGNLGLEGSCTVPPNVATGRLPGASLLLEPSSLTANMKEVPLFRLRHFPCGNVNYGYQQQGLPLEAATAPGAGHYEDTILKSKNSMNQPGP
# Chain of ALK tyrosine kinase receptor (Homo sapiens, UniProt Q9UM73, L1196M) (Q9UM73 19-1620 L1196M limits assumed): as the sequence (Q9UM73 19-1620 F1174L limits assumed) above, with L1156F, L1178M counted along it
# Chain of ALK tyrosine kinase receptor (Homo sapiens, UniProt Q9UM73) (Q9UM73 whole entry): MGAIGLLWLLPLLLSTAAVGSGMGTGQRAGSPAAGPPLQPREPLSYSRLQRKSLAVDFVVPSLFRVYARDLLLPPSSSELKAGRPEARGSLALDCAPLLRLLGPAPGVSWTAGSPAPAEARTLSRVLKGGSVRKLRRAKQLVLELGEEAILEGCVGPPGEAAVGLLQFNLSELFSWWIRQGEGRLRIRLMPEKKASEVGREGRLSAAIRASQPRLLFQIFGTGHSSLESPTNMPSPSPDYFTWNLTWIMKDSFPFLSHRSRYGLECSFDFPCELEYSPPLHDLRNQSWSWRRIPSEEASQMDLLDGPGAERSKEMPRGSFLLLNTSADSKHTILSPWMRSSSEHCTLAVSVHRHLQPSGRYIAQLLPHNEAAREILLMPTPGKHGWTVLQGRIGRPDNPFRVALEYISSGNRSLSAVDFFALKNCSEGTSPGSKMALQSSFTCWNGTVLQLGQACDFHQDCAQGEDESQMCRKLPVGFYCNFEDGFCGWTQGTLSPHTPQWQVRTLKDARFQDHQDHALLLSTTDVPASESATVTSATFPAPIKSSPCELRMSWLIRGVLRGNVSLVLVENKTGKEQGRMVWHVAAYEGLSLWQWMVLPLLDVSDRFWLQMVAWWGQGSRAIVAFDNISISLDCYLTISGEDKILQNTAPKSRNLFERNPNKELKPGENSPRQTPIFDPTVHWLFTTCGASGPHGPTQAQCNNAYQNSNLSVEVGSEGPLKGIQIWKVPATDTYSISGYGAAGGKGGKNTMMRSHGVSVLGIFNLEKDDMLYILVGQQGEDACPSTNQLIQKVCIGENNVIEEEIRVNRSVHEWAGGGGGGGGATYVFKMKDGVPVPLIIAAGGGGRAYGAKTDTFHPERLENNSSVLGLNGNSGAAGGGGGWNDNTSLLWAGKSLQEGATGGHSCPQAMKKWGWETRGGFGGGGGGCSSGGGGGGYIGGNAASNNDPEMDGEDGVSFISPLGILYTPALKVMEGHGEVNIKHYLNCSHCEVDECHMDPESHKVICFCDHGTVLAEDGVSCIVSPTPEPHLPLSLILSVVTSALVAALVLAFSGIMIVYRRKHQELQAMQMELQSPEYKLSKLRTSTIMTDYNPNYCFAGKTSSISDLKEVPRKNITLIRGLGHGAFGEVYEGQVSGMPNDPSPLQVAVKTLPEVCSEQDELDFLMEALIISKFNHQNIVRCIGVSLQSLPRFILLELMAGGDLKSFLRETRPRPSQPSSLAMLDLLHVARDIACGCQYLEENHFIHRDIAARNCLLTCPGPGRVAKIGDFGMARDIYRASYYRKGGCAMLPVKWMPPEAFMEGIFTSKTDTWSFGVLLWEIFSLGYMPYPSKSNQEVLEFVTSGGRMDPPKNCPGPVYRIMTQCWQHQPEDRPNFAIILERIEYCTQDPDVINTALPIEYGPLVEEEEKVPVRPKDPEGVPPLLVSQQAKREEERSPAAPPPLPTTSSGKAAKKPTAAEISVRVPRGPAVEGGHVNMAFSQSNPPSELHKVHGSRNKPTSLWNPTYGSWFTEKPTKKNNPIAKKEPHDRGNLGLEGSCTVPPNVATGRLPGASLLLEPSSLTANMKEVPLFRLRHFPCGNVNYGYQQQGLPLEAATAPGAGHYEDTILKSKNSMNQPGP
compound,measurement,setting,value
[2H]C([2H])([2H])C([2H])([2H])Oc1cc(C2CCNCC2)c(C)cc1Nc1ncc(Cl)c(Nc2ccccc2S(=O)(=O)C(C)C)n1,IC50,NCI-H2228 [1],45.5 nM
same,IC50,[2],37 nM
same,IC50,[3],106 nM
same,IC50,[4],51.6 nM
same,IC50,NCI-H3122,6 nM
[2H]C([2H])([2H])Oc1cc(C2CCNCC2)c(C)cc1Nc1ncc(Cl)c(Nc2ccccc2S(=O)(=O)C(C)C)n1,IC50,NCI-H2228 [1],41.3 nM
same,IC50,[2],18.7 nM
same,bioavailability,[5],60%
same,Activity,[6],Non-Toxic
same,IC50,[3],71 nM
same,IC50,[4],36.8 nM
same,IC50,NCI-H3122,4 nM
same,Tmax,[7],6 to 8 h
same,inhibition in vivo at 30 mg/kg,NCI-H2228 [8],77%
same,AUCt,[9],6980 ng·h/mL
same,inhibition in vivo at 10 mg/kg,NCI-H2228 [10],53%
same,Cmax,[11],508 ng/mL
[2H]c1c(C)c(C2CCNCC2)cc(OC(C)C)c1Nc1ncc(Cl)c(Nc2ccccc2S(=O)(=O)C(C)C)n1,IC50,NCI-H2228 [1],98.5 nM
same,IC50,NCI-H3122,24.7 nM
[2H]C([2H])([2H])C([2H])(Oc1cc(C2CCNCC2)c(C)cc1Nc1ncc(Cl)c(Nc2ccccc2S(=O)(=O)C(C)C)n1)C([2H])([2H])[2H],IC50,NCI-H2228 [1],111 nM
same,IC50,NCI-H3122,28.4 nM
COc1cc(C2CCNCC2)c(C)cc1Nc1ncc(Cl)c(Nc2ccccc2S(=O)(=O)C(C)C)n1,TGI,NCI-H2228 [12],Dose-dependent effect
Cc1cc(Nc2ncc(Cl)c(Nc3ccccc3S(=O)(=O)C(C)C)n2)c(OC(C)C)cc1C1CCNCC1 [CERITINIB],IC50,NCI-H2228 [1],97 nM
same,IC50,NCI-H3122,27.2 nM
same,inhibition in vivo at 10 mg/kg,NCI-H2228 [10],26%
[2H]c1ccc(Nc2nc(Nc3cc(C)c(C4CCNCC4)cc3OC(C)C)ncc2Cl)c(S(=O)(=O)C(C)C)c1,IC50,NCI-H2228 [1],97 nM
same,IC50,NCI-H3122,28.5 nM

# — ChEMBL document CHEMBL4387718, “Design, synthesis of orally bioavailable novel anaplastic lymphoma kinase (ALK) inhibitor diphenylaminopyrimidine analogs and efficacy study on NCI-H2228 xenografts mice model” (Bioorg Med Chem Lett, 2019)
